Literature values as cited in US20100227313A1, “Methods and Compositions for Determining Altered Susceptibility of HIV-1 to Protease Inhibitor Treatment” (priority 2007, published 2010).

System: HIV protease
Settings: 2006, cited from earlier work

CC(C)CN(C[C@@H](O)[C@H](Cc1ccccc1)NC(=O)O[C@H]1CCOC1)S(=O)(=O)c1ccc(N)cc1 [APV, amprenavir]
effect of I47A mutation on susceptibility (I47A, de Mendoza et al.): reduced susceptibility
effect of L33F mutation in protease on susceptibility (L33F, Kozal et al.): correlate with resistance
